Experimental data: paper PMC8000592, “Discovery and Optimization of Selective Inhibitors of Meprin α (Part I)” (Pharmaceuticals, 2021)

Test system: BJ skin fibroblasts and primary melanocytes
Assay: Cell toxicity studies (CellTiter-Glo, 72 h)
Format: cell-based
Conditions: skin fibroblast and melanocyte viability
Method: We also tested representative compounds from each scaffold for effects on skin fibroblast and melanocyte viability to ascertain cytotoxicity towards various skin cell types.
Test compounds were solubilized in 100% DMSO and added to polypropylene 384 well plates (Greiner cat# 781280). The 1250 of BJ skin fibroblasts (ATCC CRL-2522) and primary melanocytes (ATCC PCS-200-013) were plated in 384 well plates in 8 µL of serum-free media […]. Test compounds and pharmacological assay control (lapatinib) were prepared as 10-point, 1:3 serial dilutions starting at 10 mM, then added to the cells using the pin tool mounted on the Integra 384. Plates were incubated for 72 h at 37 °C, 5% CO2 and 95% relative humidity. […] Luminescence was recorded using a Biotek Synergy H1 multimode microplate reader. Viability was expressed as a percentage relative to wells containing media only (0%) and wells containing cells treated with DMSO only (100%). Three parameters were calculated on a per plate basis: (a) the signal-to-background ratio (S/B); (b) the coefficient for variation (CV; CV = (standard deviation/mean) × 100)) for all compound test wells; and (c) the Z’-factor. IC50 values were calculated by fitting normalized data to sigmoidal log versus response equation utilizing nonlinear regression analysis from GraphPad Prizm 8.

SMILES: O=C(CCN(Cc1ccccc1)S(=O)(=O)c1ccc(F)cc1)NO [Compound 162808]
- cytotoxicity (effect on cell viability): no cytotoxicity
